Source: article PMC3799614, “Combinatorial Engineering of Dextransucrase Specificity” (PLoS ONE, 2013)

Tested on: T1, DSR-S vardel Δ4N (Thio-DSR-S vardel Δ4N-His)
T1 construct: gene dsrS; truncated form (variable region and part of C-terminal region deleted)
Assay: initial velocity, released fructose by HPLC
Type: biochemical, Leuconostoc mesenteroides
Details: 50 mM sodium acetate pH 5.2, 0.05 g/L CaCl2, 25 °C; 10-600 mM sucrose; fit with substrate inhibition
Text: initial velocity, released fructose by HPLC on DSR-S vardel Δ4N (Thio-DSR-S vardel Δ4N-His)

## OC[C@H]1O[C@@](CO)(O[C@H]2O[C@H](CO)[C@@H](O)[C@H](O)[C@H]2O)[C@@H](O)[C@@H]1O [sucrose]
  Km: 115.8 mM
